In US8029764B2, “Methods for detection of colorectal cancer” (The Johns Hopkins University, priority 2001, dated 2011):

Tested on: colorectal tissue transcripts
Test: SAGE of normal, adenoma and cancer colorectal tissue (transcript tag counts)
Set-up: species or system human
Procedure, shortened: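 Tag counts reflect transcript abundance, each mRNA represented by a 15-base tag near its 3′ end. Excluding MHC tags, linkers and duplicate ditags, libraries were compared statistically: two each of normal epithelium, FAP-derived adenomas (>70% neoplastic) and carcinomas.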

[1] = normal colorectal tissue library 1
[2] = normal colorectal tissue library 2

GGAGGCCGAG (chemistry not fully specified)
AD1 (SAGE tag count) (SAGE library AD1): 5
AD2 (SAGE tag count) (SAGE library AD2): 0
CA1 (SAGE tag count) (SAGE library CA1): 2
CA2 (SAGE tag count) (SAGE library CA2): 5
NC1 (SAGE tag count) (SAGE library NC1): 13
NC2 (SAGE tag count) (SAGE library NC2): 9

GGAGGCGCTC (chemistry not fully specified)
AD1 (SAGE tag count) (SAGE library AD1): 1
AD2 (SAGE tag count) (SAGE library AD2): 1
CA1 (SAGE tag count) (SAGE library CA1): 0
CA2 (SAGE tag count) (SAGE library CA2): 1
NC1 (SAGE tag count) (SAGE library NC1): 5
NC2 (SAGE tag count) (SAGE library NC2): 11

GGATGGCTTA (chemistry not fully specified)
AD1 (SAGE tag count) (SAGE library AD1): 2
AD2 (SAGE tag count) (SAGE library AD2): 1
CA1 (SAGE tag count) (SAGE library CA1): 1
CA2 (SAGE tag count) (SAGE library CA2): 1
NC1 (SAGE tag count) (SAGE library NC1): 25
NC2 (SAGE tag count) (SAGE library NC2): 5

GGCACCGTGC (chemistry not fully specified)
AD1 (SAGE tag count) (SAGE library AD1): 8
AD2 (SAGE tag count) (SAGE library AD2): 10
CA1 (SAGE tag count) (SAGE library CA1): 8
CA2 (SAGE tag count) (SAGE library CA2): 4
NC1 (SAGE tag count) (SAGE library NC1): 22
NC2 (SAGE tag count) (SAGE library NC2): 44

GGCCCTGCAG (chemistry not fully specified)
AD1 (SAGE tag count) (SAGE library AD1): 1
AD2 (SAGE tag count) (SAGE library AD2): 0
CA1 (SAGE tag count) (SAGE library CA1): 5
CA2 (SAGE tag count) (SAGE library CA2): 1
NC1 (SAGE tag count) (SAGE library NC1): 14
NC2 (SAGE tag count) (SAGE library NC2): 7

GGCTCGGGAT (chemistry not fully specified)
AD1 (SAGE tag count) (SAGE library AD1): 2
AD2 (SAGE tag count) (SAGE library AD2): 4
CA1 (SAGE tag count) (SAGE library CA1): 3
CA2 (SAGE tag count) (SAGE library CA2): 5
NC1 (SAGE tag count) (SAGE library NC1): 15
NC2 (SAGE tag count) (SAGE library NC2): 11

GGCTGCCTGC (chemistry not fully specified)
AD1 (SAGE tag count) (SAGE library AD1): 4
AD2 (SAGE tag count) (SAGE library AD2): 3
CA1 (SAGE tag count) (SAGE library CA1): 5
CA2 (SAGE tag count) (SAGE library CA2): 2
NC1 (SAGE tag count) (SAGE library NC1): 13
NC2 (SAGE tag count) (SAGE library NC2): 11

GGCTGGGCCT (chemistry not fully specified)
AD1 (SAGE tag count) (SAGE library AD1): 14
AD2 (SAGE tag count) (SAGE library AD2): 5
CA1 (SAGE tag count) (SAGE library CA1): 10
CA2 (SAGE tag count) (SAGE library CA2): 8
NC1 (SAGE tag count) (SAGE library NC1): 46
NC2 (SAGE tag count) (SAGE library NC2): 25

GGGAAGCAGA (chemistry not fully specified)
AD1 (SAGE tag count) (SAGE library AD1): 18
AD2 (SAGE tag count) (SAGE library AD2): 4
CA1 (SAGE tag count) (SAGE library CA1): 8
CA2 (SAGE tag count) (SAGE library CA2): 9
NC1 (SAGE tag count) (SAGE library NC1): 32
NC2 (SAGE tag count) (SAGE library NC2): 17

GGGACGAGTG (chemistry not fully specified)
AD1 (SAGE tag count) (SAGE library AD1): 1
AD2 (SAGE tag count) (SAGE library AD2): 3
CA1 (SAGE tag count) (SAGE library CA1): 6
CA2 (SAGE tag count) (SAGE library CA2): 1
NC1 (SAGE tag count) (SAGE library NC1): 20
NC2 (SAGE tag count) (SAGE library NC2): 6

GGGCGCTGTG (chemistry not fully specified)
AD1 (SAGE tag count) (SAGE library AD1): 3
AD2 (SAGE tag count) (SAGE library AD2): 6
CA1 (SAGE tag count) (SAGE library CA1): 4
CA2 (SAGE tag count) (SAGE library CA2): 5
NC1 (SAGE tag count) (SAGE library NC1): 11
NC2 (SAGE tag count) (SAGE library NC2): 27

GGGGCAGGGC (chemistry not fully specified)
AD1 (SAGE tag count) (SAGE library AD1): 27
AD2 (SAGE tag count) (SAGE library AD2): 10
CA1 (SAGE tag count) (SAGE library CA1): 15
CA2 (SAGE tag count) (SAGE library CA2): 31
NC1 (SAGE tag count) (SAGE library NC1): 48
NC2 (SAGE tag count) (SAGE library NC2): 64

GGTGAAGAGG (chemistry not fully specified)
AD1 (SAGE tag count) (SAGE library AD1): 5
AD2 (SAGE tag count) (SAGE library AD2): 3
CA1 (SAGE tag count) (SAGE library CA1): 10
CA2 (SAGE tag count) (SAGE library CA2): 9
NC1 (SAGE tag count) (SAGE library NC1): 16
NC2 (SAGE tag count) (SAGE library NC2): 32

GTAGCAGGTG (chemistry not fully specified)
AD1 (SAGE tag count) (SAGE library AD1): 11
AD2 (SAGE tag count) (SAGE library AD2): 7
CA1 (SAGE tag count) (SAGE library CA1): 7
CA2 (SAGE tag count) (SAGE library CA2): 7
NC1 (SAGE tag count) (SAGE library NC1): 24
NC2 (SAGE tag count) (SAGE library NC2): 27

GTATTGGGGC (chemistry not fully specified)
AD1 (SAGE tag count) (SAGE library AD1): 0
AD2 (SAGE tag count) (SAGE library AD2): 0
CA1 (SAGE tag count) (SAGE library CA1): 0
CA2 (SAGE tag count) (SAGE library CA2): 0
NC1 (SAGE tag count) (SAGE library NC1): 5
NC2 (SAGE tag count) (SAGE library NC2): 7

GTCATCACCA (chemistry not fully specified; the letters are possibly those of the target site)
AD1 (SAGE tag count) (SAGE library AD1): 0
AD2 (SAGE tag count) (SAGE library AD2): 0
CA1 (SAGE tag count) (SAGE library CA1): 0
CA2 (SAGE tag count) (SAGE library CA2): 0
NC1 (SAGE tag count) (SAGE library NC1): 35
NC2 (SAGE tag count) (SAGE library NC2): 22

GTCCGAGTGC (chemistry not fully specified)
AD1 (SAGE tag count) (SAGE library AD1): 0
AD2 (SAGE tag count) (SAGE library AD2): 0
CA1 (SAGE tag count) (SAGE library CA1): 0
CA2 (SAGE tag count) (SAGE library CA2): 0
NC1 (SAGE tag count) (SAGE library NC1): 17
NC2 (SAGE tag count) (SAGE library NC2): 3

GTCCTGAACA (chemistry not fully specified)
AD1 (SAGE tag count) (SAGE library AD1): 0
AD2 (SAGE tag count) (SAGE library AD2): 0
CA1 (SAGE tag count) (SAGE library CA1): 0
CA2 (SAGE tag count) (SAGE library CA2): 0
NC1 (SAGE tag count) (SAGE library NC1): 7
NC2 (SAGE tag count) (SAGE library NC2): 3

GTGCACTGAG (chemistry not fully specified)
AD1 (SAGE tag count) (SAGE library AD1): 14
AD2 (SAGE tag count) (SAGE library AD2): 7
CA1 (SAGE tag count) (SAGE library CA1): 12
CA2 (SAGE tag count) (SAGE library CA2): 13
NC1 (SAGE tag count) (SAGE library NC1): 118
NC2 (SAGE tag count) (SAGE library NC2, major histocompatibility complex, class I, A): 48
NC2 (SAGE tag count) (SAGE library NC2, major histocompatibility complex, class I, C): 45

GTGCCTGAGA (chemistry not fully specified)
AD1 (SAGE tag count) (SAGE library AD1): 2
AD2 (SAGE tag count) (SAGE library AD2): 6
CA1 (SAGE tag count) (SAGE library CA1): 7
CA2 (SAGE tag count) (SAGE library CA2): 3
NC1 (SAGE tag count) (SAGE library NC1): 18
NC2 (SAGE tag count) (SAGE library NC2): 15

GTGGCGGGAA (chemistry not fully specified)
AD1 (SAGE tag count) (SAGE library AD1): 1
AD2 (SAGE tag count) (SAGE library AD2): 0
CA1 (SAGE tag count) (SAGE library CA1): 4
CA2 (SAGE tag count) (SAGE library CA2): 0
NC1 (SAGE tag count) (SAGE library NC1): 3
NC2 (SAGE tag count) (SAGE library NC2): 15

GTGGGGGCGC (chemistry not fully specified)
AD1 (SAGE tag count) (SAGE library AD1): 2
AD2 (SAGE tag count) (SAGE library AD2): 0
CA1 (SAGE tag count) (SAGE library CA1): 1
CA2 (SAGE tag count) (SAGE library CA2): 0
NC1 (SAGE tag count) (SAGE library NC1): 5
NC2 (SAGE tag count) (SAGE library NC2): 22

GTGGTGGCAG (chemistry not fully specified; the letters are possibly those of the target site)
AD1 (SAGE tag count) (SAGE library AD1): 1
AD2 (SAGE tag count) (SAGE library AD2): 1
CA1 (SAGE tag count) (SAGE library CA1): 10
CA2 (SAGE tag count) (SAGE library CA2): 3
NC1 (SAGE tag count) (SAGE library NC1): 29
NC2 (SAGE tag count) (SAGE library NC2): 11

GTGGTTCACG (chemistry not fully specified)
AD1 (SAGE tag count) (SAGE library AD1): 0
AD2 (SAGE tag count) (SAGE library AD2): 0
CA1 (SAGE tag count) (SAGE library CA1): 0
CA2 (SAGE tag count) (SAGE library CA2): 0
NC1 (SAGE tag count) (SAGE library NC1): 4
NC2 (SAGE tag count) (SAGE library NC2): 5
AD1 (SAGE tag count) (adenoma library 1): 0
AD2 (SAGE tag count) (adenoma library 2): 0
CA1 (SAGE tag count) (cancer library 1): 0
CA2 (SAGE tag count) (cancer library 2): 0
NC1 (SAGE tag count) [1]: 4
NC2 (SAGE tag count) [2]: 5

GTGTTGGGGG (chemistry not fully specified)
AD1 (SAGE tag count) (adenoma library 1): 8
AD2 (SAGE tag count) (adenoma library 2): 6
CA1 (SAGE tag count) (cancer library 1): 1
CA2 (SAGE tag count) (cancer library 2): 3
NC1 (SAGE tag count) [1]: 21
NC2 (SAGE tag count) [2]: 19

GTTTAGAGGG (chemistry not fully specified)
AD1 (SAGE tag count) (adenoma library 1): 0
AD2 (SAGE tag count) (adenoma library 2): 0
CA1 (SAGE tag count) (cancer library 1): 2
CA2 (SAGE tag count) (cancer library 2): 1
NC1 (SAGE tag count) [1]: 5
NC2 (SAGE tag count) [2]: 16

TAAATTGCAA (chemistry not fully specified)
AD1 (SAGE tag count) (adenoma library 1): 8
AD2 (SAGE tag count) (adenoma library 2): 17
CA1 (SAGE tag count) (cancer library 1): 5
CA2 (SAGE tag count) (cancer library 2): 3
NC1 (SAGE tag count) [1]: 103
NC2 (SAGE tag count) [2]: 59
